# Experimental data: BindingDB's records for doi:10.1021/jm970857f (Eli Lilly, 1998)
# Where a name gives a salt, the structure may show the parent alone.
# Target: T1, Alpha-1A adrenergic receptor (Rattus norvegicus, UniProt P43140)
# T1 sequence (P43140 whole entry): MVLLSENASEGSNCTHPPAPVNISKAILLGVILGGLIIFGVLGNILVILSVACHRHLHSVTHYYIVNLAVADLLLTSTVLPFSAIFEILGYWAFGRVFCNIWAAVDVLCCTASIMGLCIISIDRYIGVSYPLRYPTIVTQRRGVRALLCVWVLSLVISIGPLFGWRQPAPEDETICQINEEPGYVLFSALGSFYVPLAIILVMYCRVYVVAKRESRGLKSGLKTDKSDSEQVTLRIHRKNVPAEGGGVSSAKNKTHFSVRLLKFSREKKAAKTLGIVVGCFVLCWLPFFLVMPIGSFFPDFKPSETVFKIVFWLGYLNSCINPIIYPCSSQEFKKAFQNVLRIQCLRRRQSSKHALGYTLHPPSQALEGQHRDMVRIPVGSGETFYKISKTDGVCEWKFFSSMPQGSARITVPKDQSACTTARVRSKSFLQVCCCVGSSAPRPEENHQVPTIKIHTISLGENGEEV
row,Compound,Ki
1,CC(C)n1nc(C(=O)NCCN2CCC(NC(=O)OCc3ccccc3)CC2)c2ccccc21 [N-(2-(4-((Benzyloxycarbonyl)amino)-1-piperidinyl)-ethyl)-1-isopropylindazole-3-carboxamide Oxalate],> 10 µM
2,CC(C)n1nc(C(=O)NC2CCN(CCNS(C)(=O)=O)CC2)c2ccccc21 [N-(1-(2-((N-Methylsulfonyl)amino)ethyl)piperidin-4-yl)-1-isopropylindazole-3-carboxamide Maleate],> 10 µM
3,CC(C)n1nc(C(=O)NC2CCN(Cc3ccccc3)CC2)c2ccccc21 [N-(1-Benzylpiperidin-4-yl)-1-isopropylindazole-3-carboxamide Hydrochloride],> 10 µM
